The record followed here is patent EP0228113A2 (priority 1985, dated 1987).

Values after ≈ are worked out from the molar mass of the structure shown.

Holding throughout (format): cell-based
One assay concerns L.jordanis. As to the kind of experiment: microbe, parasite or virus in culture. As to conditions: pH 6; 48 hours; 37°C.
The next assay relates to L.wadsworthii. As to the kind of experiment: microbe, parasite or virus in culture. As to conditions: pH 6; 48 hours; 37°C.
The next assay relates to L.pneumophila gr. 2. As to the kind of experiment: microbe, parasite or virus in culture. Particulars: Legionella pneumophila, GR.2, 48 h, pH 6.
A further assay relates to L.pneumophila gr. 9. As to the kind of experiment: microbe, parasite or virus in culture. As to conditions: Legionella pneumophila, GR.9, 48 h, pH 6.
The subject of a further assay is L.pneumophila gr. 8. The assay is described as follows: microbe, parasite or virus in culture. Particulars: Legionella pneumophila, GR.8, 48 h, pH 6.
A further assay concerns L.pneumophila gr.10. As to the kind of experiment: microbe, parasite or virus in culture. Particulars: Legionella pneumophila, GR.10, 48 h, pH 6.
The next assay relates to L.bozemanii gr. 1. The assay is described as follows: microbe, parasite or virus in culture. Particulars: pH 6; 48 hours; 37°C.
In the next assay the test system is L.micdadei. The assay is described as follows: microbe, parasite or virus in culture. Particulars: pH 6; 48 hours; 37°C.
The test system of a further assay is L.pneumophila gr. 3. As to the kind of experiment: microbe, parasite or virus in culture. As to conditions: Legionella pneumophila, GR.3, 48 h, pH 6.
The test system of another assay is L.longbeachae gr. 1. The assay is described as follows: microbe, parasite or virus in culture. As to conditions: pH 6; 48 hours; 37°C.
Another assay has as its system L.pneumophila gr. 7. The assay is described as follows: microbe, parasite or virus in culture. As to conditions: Legionella pneumophila, GR.7, 48 h, pH 6.
The test system of the next assay is L.pneumophila gr. 6. As to the kind of experiment: microbe, parasite or virus in culture. Particulars: Legionella pneumophila, GR.6, 48 h, pH 6.
Another assay deals with L.dumoffii. As to the kind of experiment: microbe, parasite or virus in culture. As to conditions: pH 6; 48 hours; 37°C.
The test system of another assay is L.pneumophila gr. 5. The assay is described as follows: microbe, parasite or virus in culture. As to conditions: Legionella pneumophila, GR.5, 48 h, pH 6.
The test system of another assay is L.longbeachae gr. 2. The assay is described as follows: microbe, parasite or virus in culture. Particulars: pH 6; 48 hours; 37°C.
The test system of another assay is L.oakridgensis. As to the kind of experiment: microbe, parasite or virus in culture. As to conditions: pH 6; 48 hours; 37°C.
A further assay deals with L.pneumophila gr. 4. The assay is described as follows: microbe, parasite or virus in culture. As to conditions: Legionella pneumophila, GR.4, 48 h, pH 6.
In the next assay the test system is L.gormanii. The assay is described as follows: MIC determination on buffered charcoal yeast-extract agar (Example I). Particulars: Fluoribacter gormanii, pH 6,9, 48 hours, 37°C.
In another assay the test system is Myxococcus xanthus. The assay is described as follows: MIC determination on casitone agar (Example III). Particulars: 96 h, pH 7.6, casitone agar pH 7,6, four days, 30°C.
In assay [1] the test system is Legionella pneumophila gr. 5. As to the kind of experiment: microbe, parasite or virus in culture. Particulars: GR.5, 96 h, pH 6.
For assay [2], the system named is Legionella pneumophila gr. 1. As to the kind of experiment: microbe, parasite or virus in culture. Particulars: GR.1, 96 h, pH 6.

For `c1ccc(-c2ccc(C(c3ccccc3)n3ccnc3)cc2)cc1` (stereo not drawn) [bifonazole], the MIC is 64 µg/mL (≈ 206 µM) in the assay on L.jordanis; 32 µg/mL (≈ 103 µM) in the assay on L.wadsworthii; 128 µg/mL (≈ 412 µM) in the assay on L.pneumophila gr. 2; 128 µg/mL (≈ 412 µM) in the assay on L.pneumophila gr. 9; 128 µg/mL (≈ 412 µM) against L.pneumophila gr. 8; 128 µg/mL (≈ 412 µM) in the assay on L.pneumophila gr.10. Besides, the MIC against L.bozemanii gr. 1 came to 128 µg/mL (≈ 412 µM); in the assay with L.micdadei it was 64 µg/mL (≈ 206 µM); in the assay on L.pneumophila gr. 3, 128 µg/mL (≈ 412 µM); in the assay with L.longbeachae gr. 1, 64 µg/mL (≈ 206 µM); in the assay on L.pneumophila gr. 7, 128 µg/mL (≈ 412 µM); in the assay with L.pneumophila gr. 6, 64 µg/mL (≈ 206 µM). Moreover, the MIC in the assay with L.dumoffii was found to be 64 µg/mL (≈ 206 µM); against L.pneumophila gr. 5, 64 µg/mL (≈ 206 µM); in the assay on L.longbeachae gr. 2, 64 µg/mL (≈ 206 µM); with L.oakridgensis, 64 µg/mL (≈ 206 µM); with L.pneumophila gr. 4, 128 µg/mL (≈ 412 µM); in the assay on L.gormanii, 128 µg/mL (≈ 412 µM).

Consider `Clc1ccccc1C(c1ccccc1)(c1ccccc1)n1ccnc1` [clotrimazole], for which the MIC with L.jordanis came out at 16 µg/mL (≈ 46.4 µM); against L.wadsworthii, 8 µg/mL (≈ 23.2 µM); against L.pneumophila gr. 2, 16 µg/mL (≈ 46.4 µM); against L.pneumophila gr. 9, 16 µg/mL (≈ 46.4 µM); with L.pneumophila gr. 8 it was 16 µg/mL (≈ 46.4 µM); with L.pneumophila gr.10, 16 µg/mL (≈ 46.4 µM). The MIC in the assay with L.bozemanii gr. 1 worked out at 8 µg/mL (≈ 23.2 µM); against L.micdadei, 16 µg/mL (≈ 46.4 µM); in the assay with L.pneumophila gr. 3, 8 µg/mL (≈ 23.2 µM); against L.longbeachae gr. 1, 16 µg/mL (≈ 46.4 µM); against L.pneumophila gr. 7, 16 µg/mL (≈ 46.4 µM); against L.pneumophila gr. 6, 16 µg/mL (≈ 46.4 µM). Also, the MIC amounted to 16 µg/mL (≈ 46.4 µM) with L.dumoffii; 16 µg/mL (≈ 46.4 µM) against L.pneumophila gr. 5; 16 µg/mL (≈ 46.4 µM) against L.longbeachae gr. 2; 2 µg/mL (≈ 5.8 µM) against Myxococcus xanthus; 8 µg/mL (≈ 23.2 µM) against L.oakridgensis; 16 µg/mL (≈ 46.4 µM) against L.pneumophila gr. 4. In the assay on L.gormanii, this compound gave an MIC of 8 µg/mL (≈ 23.2 µM).

`CCC1COC(Cn2cncn2)(c2ccc(Cl)cc2Cl)O1` (stereo not drawn) [etaconazole]: the MIC in [1] and in assay [2] was over 100 µg/mL throughout.

Regarding `OC(c1ccc(Cl)cc1)(c1cncnc1)c1ccccc1Cl` (stereo not drawn) [fenarimol], the MIC in assay [1] and in [2] was 100 µg/mL (≈ 302 µM) each time.

As to `Clc1ccccc1C(c1ccc(-c2ccccc2)cc1)n1ccnc1` (stereo not drawn) [lombazole], the MIC against L.jordanis was determined as 64 µg/mL (≈ 186 µM); in the assay with L.wadsworthii, 32 µg/mL (≈ 92.8 µM); against L.pneumophila gr. 2, 128 µg/mL (≈ 371 µM); against L.pneumophila gr. 9, 128 µg/mL (≈ 371 µM); in the assay on L.pneumophila gr. 8, 128 µg/mL (≈ 371 µM); with L.pneumophila gr.10 it was 64 µg/mL (≈ 186 µM). The MIC against L.bozemanii gr. 1 amounted to 128 µg/mL (≈ 371 µM); against L.micdadei, 64 µg/mL (≈ 186 µM); in the assay on L.pneumophila gr. 3 it was 128 µg/mL (≈ 371 µM); against L.longbeachae gr. 1 it was 64 µg/mL (≈ 186 µM); in the assay with L.pneumophila gr. 7, 128 µg/mL (≈ 371 µM); in the assay with L.pneumophila gr. 6 it was 64 µg/mL (≈ 186 µM). Moreover, the MIC in the assay on L.dumoffii was 64 µg/mL (≈ 186 µM); in the assay on L.pneumophila gr. 5, 64 µg/mL (≈ 186 µM); in the assay with L.longbeachae gr. 2 it was 64 µg/mL (≈ 186 µM); in the assay with Myxococcus xanthus, 2 µg/mL (≈ 5.8 µM); in the assay with L.oakridgensis, 64 µg/mL (≈ 186 µM); in the assay on L.pneumophila gr. 4, 128 µg/mL (≈ 371 µM). In addition, the MIC against L.gormanii turned out to be 64 µg/mL (≈ 186 µM).

Turning to `Clc1ccc(COC(Cn2ccnc2)c2ccc(Cl)cc2Cl)c(Cl)c1` (stereo not drawn) [miconazole], the MIC in the assay with L.jordanis, against L.wadsworthii, in the assay on L.pneumophila gr. 2, with L.pneumophila gr. 9, against L.pneumophila gr. 8 and against L.pneumophila gr.10 was 128 µg/mL (≈ 308 µM) throughout. Also, the MIC with L.bozemanii gr. 1, in the assay with L.micdadei, with L.pneumophila gr. 3, in the assay with L.longbeachae gr. 1, in the assay on L.pneumophila gr. 7 and in the assay on L.pneumophila gr. 6 was 128 µg/mL (≈ 308 µM) in each case. Besides, the MIC in the assay on L.dumoffii is 128 µg/mL (≈ 308 µM); in the assay on L.pneumophila gr. 5, 128 µg/mL (≈ 308 µM); with L.longbeachae gr. 2, 128 µg/mL (≈ 308 µM); against Myxococcus xanthus, 2 µg/mL (≈ 4.81 µM); in the assay on L.oakridgensis, 64 µg/mL (≈ 154 µM); against L.pneumophila gr. 4, 128 µg/mL (≈ 308 µM). In the assay on L.gormanii, this compound registered an MIC of 128 µg/mL (≈ 308 µM).

As to `CCCCCCCCCCCCCN1CC(C)OC(C)C1` (stereo not drawn) [tridemorph], the MIC stood at 50 µg/mL (≈ 168 µM) in [1] and 100 µg/mL (≈ 336 µM) in assay [2].
